# Assay results from patent publication US20250144067A1, “PERSONALIZED STARVATION THERAPY FOR CANCER” (Faeth Therapeutics, Inc., priority 2021, published 2025).
# Where a name gives a salt, the structure may show the parent alone. Read-outs that look alike come from different tables or passages of the source.
# Tests used:
# [1] = system: NCI-H292 lung cancer cells; test: FDA drug screening, complete media vs cholesterol-free media with simvastatin (TABLE 2); type: cell-based, human
# [2] = system: NCI-H292 lung cancer cells; test: FDA drug screening, complete media vs cholesterol-free media without statin (TABLE 1); type: cell-based, human
# [3] = NCI-H292 cells, FDA drug library screen, cholesterol-free media with simvastatin 0.04 μM
# [4] = NCI-H292 cells, FDA drug library screen, complete media
# [5] = complete media minus cholesterol-free media + simvastatin, >0 enhanced anti-cancer activity, about 0 neutral, <0 antagonist
# [6] = Complete minus Cholesterol-free, >0 enhanced anti-cancer activity, about 0 neutral, <0 antagonist
# [7] = NCI-H292 cells, cholesterol-free media without statin, FDA drug library screen
# [8] = NCI-H292 cells, complete media, FDA drug library screen
# [9] = NCI-H292 cells, drug in cholesterol-free media with simvastatin 0.04 μM
# [10] = NCI-H292 cells, drug in complete media
# [11] = complete media vs cholesterol-free media + simvastatin (0.04 μM), >0 enhanced anti-cancer activity, about 0 neutral, <0 antagonist
# [12] = NCI-H292 cells, cholesterol-free media without statin
# [13] = Complete minus Cholesterol-free, greater than 0 enhanced anti-cancer activity, about 0 neutral, below 0 antagonist
# [14] = NCI-H292 cells, FDA drug library screen, cholesterol-free media without statin
# [15] = NCI-H292 cells, FDA library drug in cholesterol-free media with simvastatin 0.04 μM
# [16] = NCI-H292 cells, FDA library drug in complete media
# [17] = Complete minus Cholesterol-free, greater than 0 enhanced anti-cancer activity, about 0 neutral, below 0 antagonists
# [18] = NCI-H292 cells in cholesterol-free media without statin
# [19] = NCI-H292 cells in complete media
# [20] = complete vs cholesterol-free media, greater than 0 enhanced anti-cancer activity, about 0 neutral, below 0 antagonists
# [21] = complete media minus cholesterol-free media + simvastatin, […]
molecule,measurement,setting,value
COc1ccc(CN2C3CC2CN(c2ccc(-c4cc(OCC(C)(C)O)cn5ncc(C#N)c45)cn2)C3)cn1 [Selpercatinib],Cholesterol-free media + simvastatin (0.04 μM),[1]; [3],1.485
same,Complete Media,[1]; [4],1.627
same,Difference,[1]; [5],0.14
same,Difference,[2]; [6],−0.01
same,Cholesterol-free,[2]; [7],0.9224
same,Complete,[2]; [8],0.9158
C[C@]12CC[C@H]3[C@@H](CC[C@@]45O[C@@H]4C(O)=C(C#N)C[C@]35C)[C@@H]1CC[C@@H]2O [Trilostane],Cholesterol-free media + simvastatin (0.04 μM),[1]; [9],1.758
same,Complete Media,[1]; [10],1.505
same,Difference,[1]; [11],−0.25
same,Difference,[2]; [6],−0.23
same,Cholesterol-free,[2]; [12],1.238
same,Complete,"[2]; NCI-H292 cells, complete media",1.003
CCOc1nc2cccc(C(=O)OC(C)OC(=O)OC3CCCCC3)c2n1Cc1ccc(-c2ccccc2-c2nnn[nH]2)cc1 (stereo not shown) [Candesartan Cilexetil],Cholesterol-free media + simvastatin (0.04 μM),[1]; [9],1.18
same,Complete Media,[1]; [10],0.9738
same,Difference,[1]; [11],−0.21
same,Difference,[2]; [13],−0.16
same,Cholesterol-free,[2]; [14],1.093
same,Complete,[2]; [4],0.9304
Cn1ncnc1[C@H]1c2n[nH]c(=O)c3cc(F)cc(c23)N[C@@H]1c1ccc(F)cc1 [Talazoparib tosylate],Cholesterol-free media + simvastatin (0.04 μM),[1]; [15],0.5996
same,Complete Media,[1]; [16],0.312
same,Difference,[1]; [11],−0.29
same,Difference,[2]; [6],0.05
same,Cholesterol-free,[2]; [7],0.1398
same,Complete,[2]; [8],0.1924
CO[C@H]1C[C@H](O[C@@H]2/C(C)=C/C[C@@H]3C[C@@H](C[C@]4(CC[C@H](C)[C@@H](C5CCCCC5)O4)O3)OC(=O)[C@@H]3C=C(C)/C(=N/O)[C@H]4OC/C(=C\C=C\[C@@H]2C)[C@]43O)O[C@@H](C)[C@@H]1O [Selamectin],Cholesterol-free media + simvastatin (0.04 μM),[1],0.0107
same,Complete Media,[1],0.03346
same,Difference,[1],0.02
same,Cholesterol-free,[2],−0.000828
same,Complete,[2],−0.0121
same,Difference,[2],−0.01
COc1cccc(-c2c(C)n(Cc3c(F)cccc3C(F)(F)F)c(=O)n(C[C@H](NCCCC(=O)O)c3ccccc3)c2=O)c1F [Elagolix sodium],Cholesterol-free media + simvastatin (0.04 μM),[1]; [3],1.413
same,Complete Media,[1]; [4],1.627
same,Difference,[1]; [5],0.21
same,Difference,[2]; [17],−0.93
same,Cholesterol-free,[2]; [18],1.728
same,Complete,[2]; [19],0.7978
CC(=O)N[C@H]1[C@H]([C@H](O)[C@H](O)CO)OC(C(=O)O)=C[C@@H]1N=C(N)N [Zanamivir],Cholesterol-free media + simvastatin (0.04 μM),[1]; [9],1.295
same,Complete Media,[1]; [10],1.107
same,Difference,[1]; [11],−0.19
same,Difference,[2]; [17],−0.85
same,Cholesterol-free,[2]; [18],1.947
same,Complete,[2]; [19],1.097
CCc1c(C)[nH]c2c1C(=O)C(CN1CCOCC1)CC2 (stereo not shown) [Molindone (hydrochloride)],Cholesterol-free media + simvastatin (0.04 μM),[1]; [3],0.9443
same,Complete Media,[1]; [4],0.8609
same,Difference,[1]; [11],−0.08
same,Difference,[2]; [6],−0.28
same,Cholesterol-free,[2]; [12],1.138
same,Complete,"[2]; NCI-H292 cells, complete media",0.8619
CO/N=C(\C(=O)N[C@@H]1C(=O)N2C(C(=O)OCOC(=O)C(C)(C)C)=C(C)CS[C@H]12)c1csc(N)n1.Cl [Cefetamet pivoxil (hydrochloride)],Cholesterol-free media + simvastatin (0.04 μM),[1]; [9],1.058
same,Complete Media,[1]; [10],0.852
same,Difference,[1]; [11],−0.21
same,Difference,[2]; [13],−0.16
same,Cholesterol-free,[2]; [14],1.076
same,Complete,[2]; [4],0.9196
CC(C)CN(C[C@@H](O)[C@H](Cc1ccccc1)NC(=O)O[C@H]1CO[C@H]2OCC[C@H]21)S(=O)(=O)c1ccc(N)cc1 [Darunavir],Cholesterol-free media + simvastatin (0.04 μM),[1],0.9174
same,Complete Media,[1],0.7724
same,Difference,[1],−0.14
same,Cholesterol-free,[2],1.103
same,Complete,[2],0.8067
same,Difference,[2],−0.30
Nc1cccc2c1CN(C1CCC(=O)NC1=O)C2=O (stereo not shown) [Lenalidomide (hemihydrate)],Cholesterol-free media + simvastatin (0.04 μM),[1]; [15],1.432
same,Complete Media,[1]; [16],1.135
same,Difference,[1]; [11],−0.30
same,Difference,[2]; [6],−0.19
same,Cholesterol-free,[2]; [12],1.181
same,Complete,"[2]; NCI-H292 cells, complete media",0.9861
CS(=O)(=O)Nc1ccc([N+](=O)[O-])cc1Oc1ccccc1 [Nimesulide],Cholesterol-free media + simvastatin (0.04 μM),[1]; [3],0.9827
same,Difference,[1]; [5],0.17
same,Difference,[2]; [6],−0.26
same,Cholesterol-free,[2]; [12],1.157
same,Complete,"[2]; NCI-H292 cells, complete media",0.8983
Nc1cc(Cl)c(N=C2NCCN2)c(Cl)c1 [Apraclonidine (hydrochloride)],Cholesterol-free media + simvastatin (0.04 μM),[1]; [15],1.345
same,Complete Media,[1]; [16],1.018
same,Difference,[1]; [11],−0.33
same,Complete,"[2]; NCI-H292 cells, complete media",1.213
same,Difference,[2]; [20],−0.41
Tegaserod (maleate),Cholesterol-free media + simvastatin (0.04 μM),"[1]; NCI-H292 cells, cholesterol-free media with simvastatin 0.04 μM, […]",0.7216
same,Complete Media,"[1]; NCI-H292 cells, complete media, […]",0.7473
same,Difference,[1]; [21],0.03
same,Difference,"[2]; Complete minus Cholesterol-free, […]",−0.26
same,Cholesterol-free,[2]; [12],0.9824
same,Complete,"[2]; NCI-H292 cells, complete media",0.7272
CN(C)CCOC(C)(c1ccccc1)c1ccc(Cl)cc1 (stereo not shown) [Chlorphenoxamine],Cholesterol-free media + simvastatin (0.04 μM),[1]; [15],1.703
same,Complete Media,[1]; [16],1.16
same,Difference,[1]; [11],−0.54
same,Cholesterol-free,[2]; [12],1.303
same,Complete,"[2]; NCI-H292 cells, complete media",0.9903
same,Difference,[2]; [20],−0.31
COc1cc2nccc(Oc3ccc(NC(=O)C4(C(=O)Nc5ccc(F)cc5)CC4)cc3)c2cc1OC [Cabozantinib (S-malate)],Cholesterol-free media + simvastatin (0.04 μM),[1]; [15],1.216
same,Complete Media,[1]; [16],0.9255
same,Difference,[1]; [11],−0.29
same,Difference,[2]; [13],−0.18
same,Cholesterol-free,[2]; [14],1.011
same,Complete,[2]; [4],0.8269
C#C[C@]1(OC(C)=O)CC[C@H]2[C@@H]3CCC4=C[C@@H](OC(C)=O)CC[C@@H]4[C@H]3CC[C@@]21C [Ethynodiol diacetate],Cholesterol-free media + simvastatin (0.04 μM),[1]; [15],1.26
same,Complete Media,[1]; [16],0.9323
same,Difference,[1]; [11],−0.33
same,Difference,[2]; [17],−0.50
same,Cholesterol-free,[2]; [18],1.654
same,Complete,[2]; [19],1.155
Cc1cc(N2CCN([C@@H]3CN[C@H](C(=O)N4CCSC4)C3)CC2)n(-c2ccccc2)n1 [Teneligliptin],Cholesterol-free media + simvastatin (0.04 μM),[1]; [3],0.6861
same,Complete Media,[1]; [4],1.012
same,Difference,[1]; [21],0.33
same,Cholesterol-free,[2]; [12],1.328
same,Complete,"[2]; NCI-H292 cells, complete media",0.9852
same,Difference,"[2]; complete vs cholesterol-free media, […]",−0.34
Cc1ccc(C(=O)c2ccc(CC(=O)O)n2C)cc1 [Tolmetin (sodium dihydrate)],Cholesterol-free media + simvastatin (0.04 μM),[1]; [15],1.295
same,Complete Media,[1]; [16],0.94
same,Difference,[1]; [11],−0.35
same,Cholesterol-free,[2]; [7],0.7023
same,Complete,[2]; [8],1.262
same,Difference,"[2]; complete vs cholesterol-free media, >0 enhanced anti-cancer activity, about 0 neutral, <0 antagonist",0.56
COc1cc2c(cc1OC)C(=O)C(CC1CCN(Cc3ccccc3)CC1)C2 (stereo not shown) [Donepezil],Cholesterol-free media + simvastatin (0.04 μM),[1]; [3],1.009
same,Complete Media,[1]; [4],1.62
same,Difference,[1]; [5],0.61
same,Difference,[2]; [6],0.03
same,Cholesterol-free,[2]; [7],0.9537
same,Complete,[2]; [8],0.9881
CNCc1ccc(-c2[nH]c3cc(F)cc4c3c2CCNC4=O)cc1 [Rucaparib],Cholesterol-free media + simvastatin (0.04 μM),[1]; [15],1.04
same,Complete Media,[1]; [16],0.7044
same,Difference,[1]; [11],−0.34
same,Difference,[2]; [6],−0.02
same,Cholesterol-free,[2]; [7],0.9041
same,Complete,[2]; [8],0.881
CN1CCN(C2=Nc3ccccc3Oc3ccc(Cl)cc32)CC1 [Loxapine],Cholesterol-free media + simvastatin (0.04 μM),"[1]; NCI-H292 cells, cholesterol-free media with simvastatin 0.04 μM, cell growth value in FDA drug screen",0.8194
same,Complete Media,"[1]; NCI-H292 cells, complete media, cell growth value in FDA drug screen",0.9125
same,Difference,[1]; [5],0.09
same,Difference,[2]; [6],−0.26
same,Cholesterol-free,[2]; [12],1.313
same,Complete,"[2]; NCI-H292 cells, complete media",1.056
